What was measured:
P-4E-BP1 (T37/46) = assay: Cell based AlphaLISA assay, inhibition of P-4E-BP1 (T37/46) in MDA-MB-468 cells (mTORC1 substrate); conditions: AlphaLisa, two to four hours at 37° C.; for IC50: Homo sapiens, 4 h, read-out: pIC50 for Inhibition of mTORC1 and mTORC2 Substrate Phosphorylation P-4E-BP1-(T37/46) (converted)
Description: (§1) Cell Based AlphaLISA Assays For Determining IC50 For Inhibition of P-Akt (S473), P-4E-BP1(T37/46), and P-P70S6K (T389) in MDA-MB-468 Cells
(§2) mTOR Kinase Cellular Assay
(§3) To measure functional activity of mTORC1 and mTORC2 in cells the phosphorylation of 4EBPT (Thr37/46) and P70S6K (Thr389), and AKT1/2/3 (Ser473) was monitored using AlphaLisa SureFire Ultra Kits (Perkin Elmer). […] Incubations were terminated by removal of the assay buffer and addition of lysis buffer provided with the assay kit. Samples were processed according to the manufacturer's instructions. The Alpha signal from the respective phosphoproteinswas measured in duplicate using a microplate reader (Envision, Perkin-Elmer or Spectramax M5, Molecular Devices). Inhibitor concentration response curves were analyzed using normalized IC50 regression curve filling with control based normalization.

P-P70S6K (T389) = assay: Cell based AlphaLISA assay, inhibition of P-P70S6K (T389) in MDA-MB-468 cells (mTORC1 substrate); conditions: AlphaLisa, two to four hours at 37° C.; for IC50: Homo sapiens, 4 h, read-out: pIC50 for Inhibition of mTORC1 and mTORC2 Substrate Phosphorylation p-P70S6K-(T389) (converted)
Description: as §1, §2, §3

P-Akt (S473) = assay: Cell based AlphaLISA assay, inhibition of P-Akt (S473) in MDA-MB-468 cells (mTORC2 substrate); conditions: AlphaLisa, two to four hours at 37° C.; for IC50: Homo sapiens, 4 h, read-out: pIC50 for Inhibition of mTORC1 and mTORC2 Substrate Phosphorylation p-AKT1/2/3-(S473) (converted)
Description: as §1, §2, §3

Row | Compound | IC50 (P-4E-BP1 (T37/46)) [nM] | IC50 (P-P70S6K (T389)) [nM] | IC50 (P-Akt (S473)) [nM] | pIC50 for Inhibition of mTORC1 and mTORC2 Substrate Phosphorylation P-4E-BP1-(T37/46) (P-4E-BP1 (T37/46)) | pIC50 for Inhibition of mTORC1 and mTORC2 Substrate Phosphorylation p-P70S6K-(T389) (P-P70S6K (T389)) | pIC50 for Inhibition of mTORC1 and mTORC2 Substrate Phosphorylation p-AKT1/2/3-(S473) (P-Akt (S473))
1 | CO[C@H]1C[C@@H]2CC[C@@H](C)[C@@](O)(O2)C(=O)C(=O)N2CCCC[C@H]2C(=O)O[C@H]([C@H](C)C[C@@H]2CC[C@@H](OC(=O)NCCOCCOCCOCCOCCOCCOCCOCCOCC(=O)N3CCc4cc(Cn5nc(-c6ccc7oc(N)nc7c6)c6c(N)ncnc65)ccc4C3)[C@H](OC)C2)C[C@@H](O)[C@H](C)/C=C(\C)[C@@H](O)[C@@H](OC)C(=O)[C@H](C)C[C@H](C)/C=C/C=C/C=C/1C [Example 28] | < 3.16 | < 1 | > 1000 | – | – | –
2 | CO[C@H]1C[C@@H]2CC[C@@H](C)[C@@](O)(O2)C(=O)C(=O)N2CCCC[C@H]2C(=O)O[C@H]([C@H](C)C[C@@H]2CC[C@@H](OC(=O)NCCOCCOCCOCCOCCOCCOCCOCCOCCC(=O)N3CCc4cc(Cn5nc(-c6ccc7oc(N)nc7c6)c6c(N)ncnc65)ccc4C3)[C@H](OC)C2)C[C@H](N=[N+]=[N-])[C@H](C)/C=C(\C)[C@@H](O)[C@@H](OC)C(=O)[C@H](C)C[C@H](C)/C=C/C=C/C=C/1C [Example 30] | < 3.16 | < 1 | 3.16 to 31.6 | – | – | –
3 | CO[C@H]1C[C@@H]2CC[C@@H](C)[C@@](O)(O2)C(=O)C(=O)N2CCCC[C@H]2C(=O)O[C@H]([C@H](C)C[C@@H]2CC[C@@H](OC(=S)NCCOCCOCCOCCOCCOCCOCCOCCOCCC(=O)N3CCc4cc(Cn5nc(-c6ccc7oc(N)nc7c6)c6c(N)ncnc65)ccc4C3)[C@H](OC)C2)C[C@@H](O)[C@H](C)/C=C(\C)[C@@H](O)[C@@H](OC)C(=O)[C@H](C)C[C@H](C)/C=C/C=C/C=C/1C [Example 33] | < 3.16 | < 1 | > 1000 | – | – | –
4 | CO[C@H]1C[C@@H]2CC[C@@H](C)[C@@](O)(O2)C(=O)C(=O)N2CCCC[C@H]2C(=O)O[C@H]([C@H](C)C[C@@H]2CC[C@@H](OC(=S)NCCOCCOCCOCCOCCOCCOCCOCCOCCC(=O)N3CCc4cc(Cn5nc(-c6ccc7oc(N)nc7c6)c6c(N)ncnc65)ccc4C3)[C@H](OC)C2)C[C@@H](OC)[C@H](C)/C=C(\C)[C@@H](O)[C@@H](OC)C(=O)[C@H](C)C[C@H](C)/C=C/C=C/C=C/1C [Example 34] | > 1000 | < 1 | > 1000 | – | – | –
5 | CO[C@H]1C[C@@H]2CC[C@@H](C)[C@@](O)(O2)C(=O)C(=O)N2CCCC[C@H]2C(=O)O[C@H]([C@H](C)C[C@@H]2CC[C@@H](OC(=O)NCCOCCOCCOCCOCCOCCOCCOCCOCCC(=O)NCc3ccc(Cn4nc(-c5ccc6oc(N)nc6c5)c5c(N)ncnc54)cc3)[C@H](OC)C2)CC(=O)[C@H](C)/C=C(\C)[C@@H](O)[C@@H](OC)C(=O)[C@H](C)C[C@H](C)/C=C/C=C/C=C/1C [Example 35] | < 3.16 | < 1 | 3.16 to 31.6 | – | – | –
6 | CO[C@H]1C[C@@H]2CC[C@@H](C)[C@@](O)(O2)C(=O)C(=O)N2CCCC[C@H]2C(=O)O[C@H]([C@H](C)C[C@@H]2CC[C@@H](OC(=O)NCCOCCOCCOCCOCCOCCOCCOCCOCCC(=O)NCc3ccc(Cn4nc(-c5ccc6oc(N)nc6c5)c5c(N)ncnc54)cc3)[C@H](OC)C2)C[C@@H](O)[C@H](C)/C=C(\C)[C@@H](O)[C@@H](OC)C(=O)[C@H](C)C[C@H](C)/C=C/C=C/C=C/1C [Example 36] | < 3.16 | < 1 | > 1000 | – | – | –
7 | CO[C@H]1C[C@@H]2CC[C@@H](C)[C@@](O)(O2)C(=O)C(=O)N2CCCC[C@H]2C(=O)O[C@H]([C@H](C)C[C@@H]2CC[C@@H](OC(=O)NCCOCCOCCOCCOCCOCCOCCOCCOCCC(=O)NCc3ccc(Cn4nc(-c5ccc6oc(N)nc6c5)c5c(N)ncnc54)cc3)[C@H](OC)C2)C[C@@H](OC)[C@H](C)/C=C(\C)[C@@H](O)[C@@H](OC)C(=O)[C@H](C)C[C@H](C)/C=C/C=C/C=C/1C [Example 37] | < 3.16 | < 1 | > 1000 | – | – | –
8 | CO[C@H]1C[C@@H]2CC[C@@H](C)[C@@](O)(O2)C(=O)C(=O)N2CCCC[C@H]2C(=O)O[C@H]([C@H](C)C[C@@H]2CC[C@@H](OC(=O)NCCOCCOCCOCCOCCOCCOCCOCCOCCC(=O)NCc3ccc(Cn4nc(-c5ccc6oc(N)nc6c5)c5c(N)ncnc54)cc3)[C@H](OC)C2)C[C@H](N=[N+]=[N-])[C@H](C)/C=C(\C)[C@@H](O)[C@@H](OC)C(=O)[C@H](C)C[C@H](C)/C=C/C=C/C=C/1C [Example 38] | > 1000 | < 1 | > 1000 | – | – | –
9 | CO[C@H]1C[C@@H]2CC[C@@H](C)[C@@](O)(O2)C(=O)C(=O)N2CCCC[C@H]2C(=O)O[C@H]([C@H](C)C[C@@H]2CC[C@@H](OC(=S)NCCOCCOCCOCCOCCOCCOCCOCCOCCC(=O)NCc3ccc(Cn4nc(-c5ccc6oc(N)nc6c5)c5c(N)ncnc54)cc3)[C@H](OC)C2)C[C@@H](O)[C@H](C)/C=C(\C)[C@@H](O)[C@@H](OC)C(=O)[C@H](C)C[C@H](C)/C=C/C=C/C=C/1C [Example 39] | < 3.16 | < 1 | < 3.16 | – | – | –
10 | CO[C@H]1C[C@@H]2CC[C@@H](C)[C@@](O)(O2)C(=O)C(=O)N2CCCC[C@H]2C(=O)O[C@H]([C@H](C)C[C@@H]2CC[C@@H](OC(=O)NCCOCCOCCOCCOCCOCCOCCOCCOCCC(=O)NCCS(=O)(=O)c3ccc(C(=O)N4CCOc5ccc(-c6ccc(N)nc6)cc5C4)c(C)c3)[C@H](OC)C2)CC(=O)[C@H](C)/C=C(\C)[C@@H](O)[C@@H](OC)C(=O)[C@H](C)C[C@H](C)/C=C/C=C/C=C/1C [Example 40] | < 3.16 | < 1 | 3.16 to 31.6 | – | – | –
11 | CO[C@H]1C[C@@H]2CC[C@@H](C)[C@@](O)(O2)C(=O)C(=O)N2CCCC[C@H]2C(=O)O[C@H]([C@H](C)C[C@@H]2CC[C@@H](OC(=O)NCCOCCOCCOCCOCCOCCOCCOCCOCCC(=O)NCCS(=O)(=O)c3ccc(C(=O)N4CCOc5ccc(-c6ccc(N)nc6)cc5C4)c(C)c3)[C@H](OC)C2)C[C@@H](O)[C@H](C)/C=C(\C)[C@@H](O)[C@@H](OC)C(=O)[C@H](C)C[C@H](C)/C=C/C=C/C=C/1C [Example 41] | < 3.16 | < 1 | > 1000 | – | – | –
12 | CO[C@H]1C[C@@H]2CC[C@@H](C)[C@@](O)(O2)C(=O)C(=O)N2CCCC[C@H]2C(=O)O[C@H]([C@H](C)C[C@@H]2CC[C@@H](OC(=O)NCCOCCOCCOCCOCCOCCOCCOCCOCCC(=O)NCCS(=O)(=O)c3ccc(C(=O)N4CCOc5ccc(-c6ccc(N)nc6)cc5C4)c(C)c3)[C@H](OC)C2)C[C@@H](OC)[C@H](C)/C=C(\C)[C@@H](O)[C@@H](OC)C(=O)[C@H](C)C[C@H](C)/C=C/C=C/C=C/1C [Example 42] | < 3.16 | < 1 | 3.16 to 31.6 | – | – | –
13 | CO[C@H]1C[C@@H]2CC[C@@H](C)[C@@](O)(O2)C(=O)C(=O)N2CCCC[C@H]2C(=O)O[C@H]([C@H](C)C[C@@H]2CC[C@@H](OC(=O)N3CCc4nc(N5CCN(c6ncc(C(=O)N7CCN(c8ncc(C(=O)N9CCc%10cc(Cn%11nc(-c%12cnc%13oc(N)nc%13c%12)c%12c(N)ncnc%12%11)ccc%10C9)cn8)CC7)cn6)CC5)ncc4C3)[C@H](OC)C2)CC(=O)[C@H](C)/C=C(\C)[C@@H](O)[C@@H](OC)C(=O)[C@H](C)C[C@H](C)/C=C/C=C/C=C/1C [Example 62] | – | – | – | − (<6) | ++ (9 > pIC50 ≥ 8) | − (<6)
14 | CO[C@H]1C[C@@H]2CC[C@@H](C)[C@@](O)(O2)C(=O)C(=O)N2CCCC[C@H]2C(=O)O[C@H]([C@H](C)C[C@@H]2CC[C@@H](OC(=O)NCCOCCOCCOCCOCCOCCOCCOCCOCC(=O)N3CCc4cc(Cn5nc(-c6ccc7oc(N)nc7c6)c6c(N)ncnc65)ccc4C3)[C@H](OC)C2)C[C@@H](O)[C@H](C)/C=C(\C)[C@@H](O)[C@@H](OC)C(=O)[C@H](C)C[C@H](C)/C=C/C=C/C=C/1C [Example 72] | – | – | – | +++ (≥8.5) | +++ (≥9) | +++ (≥8.5)
15 | CO[C@H]1C[C@@H]2CC[C@@H](C)[C@@](O)(O2)C(=O)C(=O)N2CCCC[C@H]2C(=O)O[C@H]([C@H](C)C[C@@H]2CC[C@@H](OC(=O)NCCOCCOCCOCCOCCOCCOCCOCCOCCC(=O)N3CCc4cc(Cn5nc(-c6ccc7oc(N)nc7c6)c6c(N)ncnc65)ccc4C3)[C@H](OC)C2)C[C@@H](O)[C@H](C)/C=C(\C)[C@@H](O)[C@@H](OC)C(=O)[C@H](C)C[C@H](C)/C=C/C=C/C=C/1C [Example 75] | – | – | – | +++ (≥8.5) | +++ (≥9) | ++ (8.5 > pIC50 ≥ 7.5)

Source: patent publication US10980889B1 (Revolution Medicines, Inc., priority 2018, dated 2021)
